According to US10000791B2, “Measurement method for human pancreatic lipase activity” (ASAHI KASEI PHARMA CORPORATION, priority 2013, dated 2018):

Test system: human pancreatic lipase
Experiment: lipase activity measured in control, normal and heparin-administered samples with each reagent (1,2-dioleoyl glycerol, UV method; Liquitech Lipase Color II for verification)
Assay type: biochemical
Set-up: lipase activity relative to (1) comparative example NaDCA (Table 1): concentration or dose not given beside the values
Settings: for lipase activity (Table 1): NaDCA pH 8.15, other bile salts pH 7.0; for lipase activity relative to (1) comparative example NaDCA (Table 1): pH 7.0

## C[C@H](CCC(=O)NCCS(=O)(=O)[O-])[C@H]1CC[C@H]2[C@@H]3CC[C@@H]4C[C@H](O)CC[C@]4(C)[C@H]3C[C@H](O)[C@]12C.[Na+] [NaTDCA, sodium taurodeoxycholate]
Normal sample 1
  lipase activity (Table 1): 43.4 U/L
  lipase activity relative to (1) comparative example NaDCA (Table 1): 111.1%
Normal sample 2
  lipase activity (Table 1): 96.4 U/L
  lipase activity relative to (1) comparative example NaDCA (Table 1): 101.4%
Normal sample 3
  lipase activity (Table 1): 50.7 U/L
  lipase activity relative to (1) comparative example NaDCA (Table 1): 108.7%
Normal sample 4
  lipase activity (Table 1): 44.5 U/L
  lipase activity relative to (1) comparative example NaDCA (Table 1): 102.3%
Normal sample 5
  lipase activity (Table 1): 31.7 U/L
  lipase activity relative to (1) comparative example NaDCA (Table 1): 77.8%
Sample Heparin 1
  lipase activity (Table 1): 30.1 U/L
  lipase activity relative to (1) comparative example NaDCA (Table 1): 39.2%
Sample Heparin 2
  lipase activity (Table 1): 44.2 U/L
  lipase activity relative to (1) comparative example NaDCA (Table 1): 50.9%
Sample Heparin 3
  lipase activity (Table 1): 37.9 U/L
  lipase activity relative to (1) comparative example NaDCA (Table 1): 33.6%
Sample Heparin 4
  lipase activity (Table 1): 28.9 U/L
  lipase activity relative to (1) comparative example NaDCA (Table 1): 28.5%
Sample Heparin 5
  lipase activity (Table 1): 30.1 U/L
  lipase activity relative to (1) comparative example NaDCA (Table 1): 44.0%
Sample Heparin 6
  lipase activity (Table 1): 30.1 U/L
  lipase activity relative to (1) comparative example NaDCA (Table 1): 43.4%
Sample Heparin 7
  lipase activity (Table 1): 50.4 U/L
  lipase activity relative to (1) comparative example NaDCA (Table 1): 36.4%
Sample Heparin 8
  lipase activity (Table 1): 54.7 U/L
  lipase activity relative to (1) comparative example NaDCA (Table 1): 43.4%
Sample Heparin 9
  lipase activity (Table 1): 82.4 U/L
  lipase activity relative to (1) comparative example NaDCA (Table 1): 48.8%
Sample Heparin 21, pH 6.2
  lipase activity (Table 3): 35.9 U/L
Sample Heparin 21, pH 6.4
  lipase activity (Table 3): 37.9 U/L
Sample Heparin 21, pH 6.6
  lipase activity (Table 3): 40.9 U/L
Sample Heparin 21, pH 6.9
  lipase activity (Table 3): 48.6 U/L
Sample Heparin 21, pH 7.2
  lipase activity (Table 3): 47.6 U/L
Sample Heparin 21, pH 7.4
  lipase activity (Table 3): 44.5 U/L
Sample Heparin 21, pH 7.6
  lipase activity (Table 3): 34.7 U/L
Sample Heparin 22, pH 6.2
  lipase activity (Table 3): 39.7 U/L
Sample Heparin 22, pH 6.4
  lipase activity (Table 3): 41.7 U/L
Sample Heparin 22, pH 6.6
  lipase activity (Table 3): 45.5 U/L
Sample Heparin 22, pH 6.9
  lipase activity (Table 3): 53.6 U/L
Sample Heparin 22, pH 7.2
  lipase activity (Table 3): 52.6 U/L
Sample Heparin 22, pH 7.4
  lipase activity (Table 3): 49.2 U/L
Sample Heparin 22, pH 7.6
  lipase activity (Table 3): 38.3 U/L
Sample Heparin 23, pH 6.2
  lipase activity (Table 3): 61.0 U/L
Sample Heparin 23, pH 6.4
  lipase activity (Table 3): 63.0 U/L
Sample Heparin 23, pH 6.6
  lipase activity (Table 3): 71.4 U/L
Sample Heparin 23, pH 6.9
  lipase activity (Table 3): 81.7 U/L
Sample Heparin 23, pH 7.2
  lipase activity (Table 3): 80.5 U/L
Sample Heparin 23, pH 7.4
  lipase activity (Table 3): 75.8 U/L
Sample Heparin 23, pH 7.6
  lipase activity (Table 3): 58.6 U/L
Sample Heparin 24, pH 6.2
  lipase activity (Table 3): 44.9 U/L
Sample Heparin 24, pH 6.4
  lipase activity (Table 3): 46.9 U/L
Sample Heparin 24, pH 6.6
  lipase activity (Table 3): 51.8 U/L
Sample Heparin 24, pH 6.9
  lipase activity (Table 3): 60.4 U/L
Sample Heparin 24, pH 7.2
  lipase activity (Table 3): 59.4 U/L
Sample Heparin 24, pH 7.4
  lipase activity (Table 3): 55.7 U/L
Sample Heparin 24, pH 7.6
  lipase activity (Table 3): 43.2 U/L
Sample Heparin 25, pH 6.2
  lipase activity (Table 3): 38.0 U/L
Sample Heparin 25, pH 6.4
  lipase activity (Table 3): 40.0 U/L
Sample Heparin 25, pH 6.6
  lipase activity (Table 3): 43.5 U/L
Sample Heparin 25, pH 6.9
  lipase activity (Table 3): 51.4 U/L
Sample Heparin 25, pH 7.2
  lipase activity (Table 3): 50.4 U/L
Sample Heparin 25, pH 7.4
  lipase activity (Table 3): 47.1 U/L
Sample Heparin 25, pH 7.6
  lipase activity (Table 3): 36.7 U/L
Sample PRECINORM
  lipase activity (Table 1): 52.1 U/L
  lipase activity relative to (1) comparative example NaDCA (Table 1): 102.1%
Sample PRECINORM, pH 6.2
  lipase activity (Table 3): 46.8 U/L
Sample PRECINORM, pH 6.4
  lipase activity (Table 3): 50.0 U/L
Sample PRECINORM, pH 6.6
  lipase activity (Table 3): 52.6 U/L
Sample PRECINORM, pH 6.9
  lipase activity (Table 3): 67.1 U/L
Sample PRECINORM, pH 7.2
  lipase activity (Table 3): 59.5 U/L
Sample PRECINORM, pH 7.4
  lipase activity (Table 3): 57.1 U/L
Sample PRECINORM, pH 7.6
  lipase activity (Table 3): 52.0 U/L
Sample PRECIPATH
  lipase activity (Table 1): 134.6 U/L
  lipase activity relative to (1) comparative example NaDCA (Table 1): 105.2%
Sample PRECIPATH, pH 6.2
  lipase activity (Table 3): 110.7 U/L
Sample PRECIPATH, pH 6.4
  lipase activity (Table 3): 109.5 U/L
Sample PRECIPATH, pH 6.6
  lipase activity (Table 3): 140.3 U/L
Sample PRECIPATH, pH 6.9
  lipase activity (Table 3): 157.3 U/L
Sample PRECIPATH, pH 7.2
  lipase activity (Table 3): 159.2 U/L
Sample PRECIPATH, pH 7.4
  lipase activity (Table 3): 152.7 U/L
Sample PRECIPATH, pH 7.6
  lipase activity (Table 3): 110.7 U/L
Sample Pool 1, pH 6.2
  lipase activity (Table 3): 42.1 U/L
Sample Pool 1, pH 6.4
  lipase activity (Table 3): 44.6 U/L
Sample Pool 1, pH 6.6
  lipase activity (Table 3): 45.2 U/L
Sample Pool 1, pH 6.9
  lipase activity (Table 3): 53.0 U/L
Sample Pool 1, pH 7.2
  lipase activity (Table 3): 52.4 U/L
Sample Pool 1, pH 7.4
  lipase activity (Table 3): 45.4 U/L
Sample Pool 1, pH 7.6
  lipase activity (Table 3): 39.1 U/L
Sample Pool 2, pH 6.2
  lipase activity (Table 3): 22.8 U/L
Sample Pool 2, pH 6.4
  lipase activity (Table 3): 24.8 U/L
Sample Pool 2, pH 6.6
  lipase activity (Table 3): 23.6 U/L
Sample Pool 2, pH 6.9
  lipase activity (Table 3): 28.0 U/L
Sample Pool 2, pH 7.2
  lipase activity (Table 3): 28.2 U/L
Sample Pool 2, pH 7.4
  lipase activity (Table 3): 27.0 U/L
Sample Pool 2, pH 7.6
  lipase activity (Table 3): 18.3 U/L
Sample Seraclear, pH 6.2
  lipase activity (Table 3): 23.7 U/L
Sample Seraclear, pH 6.4
  lipase activity (Table 3): 25.4 U/L
Sample Seraclear, pH 6.6
  lipase activity (Table 3): 28.6 U/L
Sample Seraclear, pH 6.9
  lipase activity (Table 3): 31.7 U/L
Sample Seraclear, pH 7.2
  lipase activity (Table 3): 33.8 U/L
Sample Seraclear, pH 7.4
  lipase activity (Table 3): 31.4 U/L
Sample Seraclear, pH 7.6
  lipase activity (Table 3): 20.2 U/L
